Results reported in patent US9828379B2 (priority 2013, dated 2017).

Key:
[1] = biological target: T1, FAAH (Mus musculus, UniProt O08914); test: In vitro competitive activity-based protein profiling (Table 2, % inhibition at 1 μM); type: biochemical; conditions: read-out: % Inhibition at 1 μM FAAH
T1 sequence (O08914 1-579): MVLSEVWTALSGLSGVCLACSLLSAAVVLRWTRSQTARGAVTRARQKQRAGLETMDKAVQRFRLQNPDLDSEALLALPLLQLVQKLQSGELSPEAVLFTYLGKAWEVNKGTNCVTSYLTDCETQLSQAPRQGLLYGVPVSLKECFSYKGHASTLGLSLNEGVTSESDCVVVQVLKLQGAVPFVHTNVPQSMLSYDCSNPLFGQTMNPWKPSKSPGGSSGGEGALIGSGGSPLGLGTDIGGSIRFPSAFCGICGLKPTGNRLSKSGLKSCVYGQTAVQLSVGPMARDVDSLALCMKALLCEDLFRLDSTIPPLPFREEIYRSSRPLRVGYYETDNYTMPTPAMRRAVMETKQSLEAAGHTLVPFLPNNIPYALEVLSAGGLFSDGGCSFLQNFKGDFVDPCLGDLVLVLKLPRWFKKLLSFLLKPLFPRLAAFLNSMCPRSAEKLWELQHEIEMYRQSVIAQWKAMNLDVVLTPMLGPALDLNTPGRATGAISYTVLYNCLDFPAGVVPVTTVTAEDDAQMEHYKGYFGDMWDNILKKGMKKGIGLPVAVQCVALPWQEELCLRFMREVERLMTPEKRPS

[2] = biological target: T2, ABHD6 (Mus musculus, UniProt Q8R2Y0); test: as above; type: biochemical; conditions: read-out: % Inhibition at 1 μM ABHD6
T2 sequence (Q8R2Y0 1-336): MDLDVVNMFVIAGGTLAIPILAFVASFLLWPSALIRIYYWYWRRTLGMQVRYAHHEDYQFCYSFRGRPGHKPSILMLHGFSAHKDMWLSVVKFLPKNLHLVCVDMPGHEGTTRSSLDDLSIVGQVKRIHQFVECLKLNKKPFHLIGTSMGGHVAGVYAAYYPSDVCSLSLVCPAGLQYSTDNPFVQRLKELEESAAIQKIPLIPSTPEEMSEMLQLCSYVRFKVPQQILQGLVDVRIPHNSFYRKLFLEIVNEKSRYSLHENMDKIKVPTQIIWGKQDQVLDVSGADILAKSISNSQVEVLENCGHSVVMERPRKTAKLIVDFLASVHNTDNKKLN

[3] = biological target: T2, ABHD6; test: biochemical; conditions: in vitro competitive ABPP
[4] = biological target: T3, MAGL (Mus musculus, UniProt O35678); test: biochemical; conditions: mouse; in vitro competitive ABPP; read-out: Mouse (IC50 value, nM) MAGL
T3 sequence (O35678 1-303): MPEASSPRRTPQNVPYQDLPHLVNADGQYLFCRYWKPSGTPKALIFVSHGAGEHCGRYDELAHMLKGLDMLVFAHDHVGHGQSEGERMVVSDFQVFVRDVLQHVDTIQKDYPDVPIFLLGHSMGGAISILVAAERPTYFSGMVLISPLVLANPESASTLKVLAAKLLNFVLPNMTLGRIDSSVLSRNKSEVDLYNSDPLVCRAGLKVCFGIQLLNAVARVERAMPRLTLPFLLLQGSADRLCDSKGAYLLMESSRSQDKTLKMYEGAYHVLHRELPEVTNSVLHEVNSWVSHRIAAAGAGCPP

[5] = biological target: T3, MAGL; test: In vitro competitive activity-based protein profiling (Table 2, % inhibition at 1 μM); type: biochemical; conditions: read-out: % Inhibition at 1 μM MAGL
Procedure: After 30 min, FP—Rh (1.0 μL, 50 μM in DMSO) was added and the mixture was incubated for another 30 min at 37° C. Reactions were quenched with SDS loading buffer (50 μL-4×) and run on SDS-PAGE.
Cell lysates were diluted with mock proteomes for use in competitive ABPP experiments.

[6] = biological target: T1, FAAH; test: biochemical; conditions: in vitro competitive ABPP

SMILES | inhibition at 1 µM [1] | inhibition at 1 µM [2] | IC50 [3] | IC50 [4] | inhibition at 1 µM [5] | IC50 [6]
O=C(OC(C(F)(F)F)C(F)(F)F)N1CC2CN(Cc3c(N4CC5COCC5C4)cccc3C(F)(F)F)CC2C1 (stereo not drawn) [Example 209, 1,1,1,3,3,3-hexafluoropropan-2-yl 5-(2-(tetrahydro-1H-furo[3,4-c]pyrrol-5(3H)-yl)-6-(trifluoromethyl)benzyl)hexahydropyrrolo[3,4-c]pyrrole-2(1H)-carboxylate] | < 25% | 25 to 75% | 1000 to 10000 nM | 100 to 1000 nM | > 75% | > 10000 nM
O=C(OC(C(F)(F)F)C(F)(F)F)N1CC2CN(Cc3cccc(-c4ccccc4)c3)CC2C1 (stereo not drawn) [Example 13, 1,1,1,3,3,3-Hexafluoropropan-2-yl 5-[(3-phenylphenyl)methyl]-octahydropyrrolo[3,4-c]pyrrole-2-carboxylate] | 25 to 75% | < 25% | 1000 to 10000 nM | < 100 nM | > 75% | 100 to 1000 nM
Cn1nc(-c2cccc(F)c2)cc1CN1CC2CN(C(=O)OC(C(F)(F)F)C(F)(F)F)CC2C1 (stereo not drawn) [Example 195, 1,1,1,3,3,3-hexafluoropropan-2-yl 5-((3-(3-fluorophenyl)-1-methyl-1H-pyrazol-5-yl)methyl)hexahydropyrrolo[3,4-c]pyrrole-2(1H)-carboxylate] | < 25% | 25 to 75% | 100 to 1000 nM | < 100 nM | > 75% | 1000 to 10000 nM
O=C(OC(C(F)(F)F)C(F)(F)F)N1CC2CN(Cc3ccc(C(F)F)cc3N3CCOCC3)CC2C1 (stereo not drawn) [Example 203, 1,1,1,3,3,3-hexafluoropropan-2-yl 5-(4-(difluoromethyl)-2-morpholinobenzyl)hexahydropyrrolo[3,4-c]pyrrole-2(1H)-carboxylate] | < 25% | 25 to 75% | 1000 to 10000 nM | < 100 nM | > 75% | 1000 to 10000 nM
O=C(OC(C(F)(F)F)C(F)(F)F)N1CC2CN(Cc3ccc(N4CCOCC4)cc3C(F)(F)F)CC2C1 (stereo not drawn) [Example 10, 1,1,1,3,3,3-Hexafluoropropan-2-yl 5-[[4-(morpholin-4-yl)-2-(trifluoromethyl)phenyl]methyl]-octahydropyrrolo[3,4-c]pyrrole-2-carboxylate] | 25 to 75% | < 25% | 1000 to 10000 nM | < 100 nM | > 75% | 100 to 1000 nM
O=C(OC(C(F)(F)F)C(F)(F)F)N1CC2CN(Cc3cccc(Cl)c3N3CCOCC3)CC2C1 (stereo not drawn) [Example 44, 1,1,1,3,3,3-Hexafluoropropan-2-yl 5-[[3-chloro-2-(morpholin-4-yl)phenyl]methyl]-octahydropyrrolo[3,4-c]pyrrole-2-carboxylate] | < 25% | < 25% | 1000 to 10000 nM | < 100 nM | > 75% | 1000 to 10000 nM
O=C(OC(C(F)(F)F)C(F)(F)F)N1CC2CN(Cc3ccc(C(F)F)cc3N3CCCC3)CC2C1 (stereo not drawn) [Example 205, 1,1,1,3,3,3-hexafluoropropan-2-yl 5-(4-(difluoromethyl)-2-(pyrrolidin-1-yl)benzyl)hexahydropyrrolo[3,4-c]pyrrole-2(1H)-carboxylate] | < 25% | < 25% | 1000 to 10000 nM | < 100 nM | > 75% | 1000 to 10000 nM
O=C(OC(C(F)(F)F)C(F)(F)F)N1CC2CN(Cc3ccc(Cl)cc3N3CCC4(CCOCC4)C3)CC2C1 (stereo not drawn) [Example 31, 1,1,1,3,3,3-Hexafluoropropan-2-yl 5-[(4-chloro-2-[8-oxa-2-azaspiro[4.5]decan-2-yl]phenyl)methyl]-octahydropyrrolo[3,4-c]pyrrole-2-carboxylate] | < 25% | < 25% | 1000 to 10000 nM | < 100 nM | > 75% | 1000 to 10000 nM
CCc1cc(CN2CC3CN(C(=O)OC(C(F)(F)F)C(F)(F)F)CC3C2)n(C2CCOCC2)n1 (stereo not drawn) [Example 156, 1,1,1,3,3,3-hexafluoropropan-2-yl 5-[[3-ethyl-1-(oxan-4-yl)-1H-pyrazol-5-yl]methyl]-octahydropyrrolo[3,4-c]pyrrole-2-carboxylate] | < 25% | < 25% | 1000 to 10000 nM | < 100 nM | > 75% | 1000 to 10000 nM
O=C(OC(C(F)(F)F)C(F)(F)F)N1CC2CN(Cc3ccc(N4CCOCC4)cc3F)CC2C1 (stereo not drawn) [Example 1, 1,1,1,3,3,3-Hexafluoropropan-2-yl 5-(2-fluoro-4-morpholinobenzyl)hexahydropyrrolo[3,4-c]pyrrole-2(1H)-carboxylate] | 25 to 75% | < 25% | 1000 to 10000 nM | < 100 nM | > 75% | 100 to 1000 nM
Cc1c(CN2CC3CN(C(=O)ON4C(=O)CCC4=O)CC3C2)cccc1N1CCCCC1 (stereo not drawn) [Example 104, 2,5-Dioxopyrrolidin-1-yl 5-[[2-methyl-3-(piperidin-1-yl)phenyl]methyl]-octahydropyrrolo[3,4-c]pyrrole-2-carboxylate] | > 75% | < 25% | 1000 to 10000 nM | < 100 nM | > 75% | 100 to 1000 nM
Cc1c(CN2CC3CN(C(=O)OC(C(F)(F)F)C(F)(F)F)CC3C2)cccc1N1CCN(C)CC1 (stereo not drawn) [Example 154, 1,1,1,3,3,3-hexafluoropropan-2-yl 5-[[2-methyl-3-(4-methylpiperazin-1-yl)phenyl]methyl]-octahydropyrrolo[3,4-c]pyrrole-2-carboxylate] | < 25% | < 25% | 1000 to 10000 nM | 100 to 1000 nM | > 75% | > 10000 nM
CC(=O)N1CCN(c2cc(Cl)ccc2CN2CC3CN(C(=O)OC(C(F)(F)F)C(F)(F)F)CC3C2)CC1 (stereo not drawn) [Example 21, 1,1,1,3,3,3-Hexafluoropropan-2-yl 5-[[2-(4-acetylpiperazin-1-yl)-4-chlorophenyl]methyl]-octahydropyrrolo[3,4-c]pyrrole-2-carboxylate] | 25 to 75% | 25 to 75% | 100 to 1000 nM | < 100 nM | > 75% | 1000 to 10000 nM
CN1CCN(c2c(Cl)cccc2CN2CC3CN(C(=O)OC(C(F)(F)F)C(F)(F)F)CC3C2)CC1 (stereo not drawn) [Example 171, 1,1,1,3,3,3-hexafluoropropan-2-yl 5-[[3-chloro-2-(4-methylpiperazin-1-yl)phenyl]methyl]-octahydropyrrolo[3,4-c]pyrrole-2-carboxylate] | < 25% | < 25% | 1000 to 10000 nM | 100 to 1000 nM | > 75% | > 10000 nM
O=C(OC(C(F)(F)F)C(F)(F)F)N1CC2CN(Cc3ccc(Cl)cc3N3CCn4ncnc4C3)CC2C1 (stereo not drawn) [Example 34, 1,1,1,3,3,3-Hexafluoropropan-2-yl 5-(4-chloro-2-(5,6-dihydro-[1,2,4]triazolo[1,5-a]pyrazin-7(8H)-yl)benzyl)-hexahydropyrrolo[3,4-c]pyrrole-2(1H)-carboxylate] | 25 to 75% | 25 to 75% | 100 to 1000 nM | < 100 nM | > 75% | 1000 to 10000 nM
O=C(OC(C(F)(F)F)C(F)(F)F)N1CC2CN(Cc3ccc(N4CCOCC4)cc3Cl)CC2C1 (stereo not drawn) [Example 2, 1,1,1,3,3,3-Hexafluoropropan-2-yl 5-(2-chloro-4-morpholinobenzyl)hexahydropyrrolo[3,4-c]pyrrole-2(1H)-carboxylate] | 25 to 75% | < 25% | 1000 to 10000 nM | < 100 nM | > 75% | 100 to 1000 nM
